{
  "source": "patent US20250032437A1",
  "about": "“D-Serine Inhibits Neuroinflammation Due To A Brain Injury” (Florida State University Research Foundation, Inc., priority 2019, published 2025)",
  "test_system": "entorhinal cortex (neurons, astrocytes, microglia) of animals made epileptic with a chemo-convulsant",
  "assay": "D-serine injected into the entorhinal area in an animal model of Temporal Lobe Epilepsy; neurons, astrocytes and microglia identified with fluorescent-tagged antibodies",
  "format": "in vivo",
  "description": "These cells cause inflammation in brain tissue by releasing cytokines. These neuroinflammatory cell types were identified using fluorescent-tagged antibodies first in control animals and then in animals that were made epileptic using a well-established animal model of Temporal Lobe Epilepsy. […] In a separate sample of animals, D-serine was injected into the entorhinal area prior to making them epileptic with a chemo-convulsant and immediately after administration of the chemo-convulsant.",
  "key": {"[1]": {"conditions": "D-serine injected into the entorhinal area, FIG. 2 vs FIG. 3"}},
  "data": [
    {"molecule": "N[C@H](CO)C(=O)O", "note": "[D-serine]", "values": [
      {"measurement": "development of epilepsy after chemo-convulsant", "setting": "D-serine injected into the entorhinal area prior to and immediately after administration of the chemo-convulsant", "result": "did not become epileptic"},
      {"measurement": "astrocytes in the entorhinal region (GFAP)", "setting": "[1]", "result": "fewer astrocytes"},
      {"measurement": "neurons in the entorhinal cortex (NeuN) compared with the epileptic animals", "setting": "[1]", "result": "significant rescue of neurons"},
      {"measurement": "infiltration of microglia to the entorhinal region (OX42)", "setting": "D-serine injected into the entorhinal area, FIG. 7 vs FIG. 8", "result": "significantly reduced"}
    ]}
  ]
}
